In patent US20200297670A1, “Capsaicin Sequential Dosing Method for Treatment of Morton's Neuroma Pain” (Centrexion Therapeutics Corporation, priority 2016, published 2020):

Test system: pain due to an intermetatarsal neuroma
Test: Average walking pain due to intermetatarsal neuroma on Numeric Pain Rating Scale (NPRS) after two injected doses of trans-capsaicin
Type: in vivo, human
Conditions: for reduction in patients' reported average walking pain due to the intermetatarsal neuroma (NPRS): 27 adult human patients
Experimental: Twenty-seven adult, human patients experiencing pain due to an intermetatarsal neuroma were treated by administering a first dose of trans-capsaicin (200 μg of trans-capsaicin) and then, after at least 11 weeks, administered a second dose of trans-capsaicin (200 μg of trans-capsaicin). Patients rated their average walking pain due to the intermetatarsal neuroma on a Numeric Pain Rating Scale (NPRS), where pain is characterized by the patient on a scale of zero to ten (with zero being “no pain”, and ten being “worst possible pain”). Patients rated their average walking pain due to the intermetatarsal neuroma on (i) just prior to receiving the injection of trans-capsaicin and (ii) four (4) weeks after receiving each injection of trans-capsaicin. Patients reported a reduction in average walking pain due to the intermetatarsal neuroma when measured at four weeks after injection of trans-capsaicin for each administration of trans-capsaicin.
trans-Capsaicin was administered to twenty-seven (27) adult, human patients experiencing pain due to an intermetatarsal neuroma according to the procedures described below. Prior to administering the first dose of trans-capsaicin in this study, patients reported an average walking pain due to the intermetatarsal neuroma of at least four on the Numeric Pain Rating Scale (NPRS). Patients received two doses of trans-capsaicin.
trans-Capsaicin was injected in the amount of 200 μg per dose by ultrasound-guided needle placement into the area of the neuroma (but not inserting the needle into the intermetatarsal neuroma itself). The dose of trans-capsaicin was injected as a 2 mL solution containing trans-capsaicin at a concentration of 100 μg/mL. […]
Pain due to the intermetatarsal neuroma was evaluated by having patients rate their average walking pain due to the intermetatarsal neuroma on a Numeric Pain Rating Scale (NPRS), where pain is characterized by the patient on a scale of zero to ten (with zero being “no pain”, and ten being “worst possible pain”). […]

## COc1cc(CNC(=O)CCCCC=CC(C)C)ccc1O [trans-capsaicin, N-[(4-hydroxy-3-methoxyphenyl)methyl]-8-methylnon-6-enamide]
First dose 200 μg trans-capsaicin injected into area of neuroma, four weeks after injection vs prior to first dose
  reduction in patients' reported average walking pain due to the intermetatarsal neuroma (NPRS): 1.6 point
Second dose 200 μg trans-capsaicin (83 to 196 days after first dose), four weeks after injection vs just prior to second dose
  reduction in patients' reported average walking pain due to the intermetatarsal neuroma (NPRS): 2.3 point
Repeat injection, 200 μg per dose, adult human patients
  effect of repeat injection on pain due to an intermetatarsal neuroma: effective in ameliorating pain
